Reference: paper PMC6522510 (Nature Communications, 2019)
Structures can show the parent of a compound that is named as a salt. Where two headings read alike, the source gives them in different places.

How the values were obtained:
Design in all cases: species or system AML cell lines (8); Primary HTS, single concentration about 10 uM, Cell Titer Glo viability; log10 luminescence, per cent inhibition relative to cycloheximide control
Conditions in all cases: 72 h, relative to cycloheximide control, log10 luminescence, inhibitor
MOLM-13 = tested on: MOLM-13
CMS = tested on: CMS
ML-2 = tested on: ML-2
M07e = tested on: M07e
MV4-11 = tested on: MV4-11
CHRF288-11 = tested on: CHRF288-11
CMK = tested on: CMK
U937 = tested on: U937

Structure (SMILES)	MOLM-13 %inh (MOLM-13) [%]	CMS %inh (CMS) [%]	ML-2 %inh (ML-2) [%]	M07e %inh (M07e) [%]	MV4-11 %inh (MV4-11) [%]	CHRF288-11 %inh (CHRF288-11) [%]	CMK %inh (CMK) [%]	U937 %inh (U937) [%]	MOLM-13 %inh (MOLM-13; MOLM-13 %inh, 10 µM) [%]	CMS %inh (CMS; CMS %inh, 10 µM) [%]	ML-2 %inh (ML-2; ML-2 %inh, 10 µM) [%]	M07e %inh (M07e; M07e %inh, 10 µM) [%]	MV4-11 %inh (MV4-11; MV4-11 %inh, 10 µM) [%]	CHRF288-11 %inh (CHRF288-11; CHRF288-11 %inh, 10 µM) [%]	CMK %inh (CMK; CMK %inh, 10 µM) [%]	U937 %inh (U937; U937 %inh, 10 µM) [%]
O=C(O[C@@H]1C[C@@H]2C[C@H]3C[C@H](C1)N2CC3=O)c1c[nH]c2ccccc12 [SJ000565162-1, DOLASETRON MESYLATE]	27.78	-2.789	0.9019	0.4101	-0.3278	-2.852	0.6983	-1.048								
Cc1ccccc1N1CCN(CCc2nnc3n2CCCC3)CC1 [SJ000565164-1, DAPIPRAZOLE HYDROCHLORIDE]									25.76	-1.478	2.518	-1.247	-2.751	8.203	-9.616	-2.961
Cc1ccccc1N1CCN(CCc2nnc3n2CCCC3)CC1 [SJ000565164-2, DAPIPRAZOLE HYDROCHLORIDE]									3.696	-0.5071	1.742	0.4169	0.3008	1.908	-2.237	-1.057
CCCCC[C@](C)(O)/C=C/[C@@H]1[C@@H](C/C=C\CCCC(=O)O)[C@@H](O)C[C@H]1O [SJ000565165-1, CARBOPROST TROMETHAMINE]	2.726	2.5	2.687	-0.103	1.156	21.89	-7.865	-1.422								
CCN(CC)CCOC(=O)c1ccc(N)cc1Cl [SJ000565166-1, CHLOROPROCAINE HYDROCHLORIDE]	5.209	-2.449	1.664	-0.3142	1.062	2.414	-4.183	-1.434								
CCCCCCCCCCCCCCCCCCCCCCO [SJ000565168-1, 1-DOCOSANOL (BEHENYL ALCOHOL)]	-4.024	-0.803	-0.3569	3.056	-0.7251	5.263	-5.554	-0.3827								
CO/N=C(\C(=O)N[C@@H]1C(=O)N2C(C(=O)O)=CCS[C@H]12)c1csc(N)n1 [SJ000565169-1, CEFTIZOXIME SODIUM]	-3.581	-3.365	-0.7534	1.196	-0.08777	-3.529	-4.179	-0.2552								
CC1(C)O[C@@H]2C[C@H]3[C@@H]4CCC5=CC(=O)C=C[C@]5(C)[C@H]4[C@@H](O)C[C@]3(C)[C@]2(C(=O)CO)O1 [SJ000565170-1, DESONIDE]	5.492	1.425	-0.7887	8.441	0.7481	6.238	3.484	6.18								
CC=CC1=C(C(=O)O)N2C(=O)[C@@H](NC(=O)[C@H](N)c3ccc(O)cc3)[C@H]2SC1 [SJ000565172-1, CEFPROZIL]									3.181	-1.599	-0.9482	-0.1553	3.254	-2.763	-2.483	0.9255
CC=CC1=C(C(=O)O)N2C(=O)[C@@H](NC(=O)[C@H](N)c3ccc(O)cc3)[C@H]2SC1 [SJ000565172-2, CEFPROZIL]									0.07702	-3.774	-1.058	-4.985	1.013	-7.818	1.641	-2.74
CC=CC1=C(C(=O)O)N2C(=O)[C@@H](NC(=O)[C@H](N)c3ccc(O)cc3)[C@H]2SC1 [SJ000565172-3, CEFPROZIL]									-1.663	0.3567	-1.603	-2.148	-2.606	-2.278	-7.257	-1.915
C#C[C@]1(O)CC[C@H]2[C@@H]3CCC4=CCCC[C@@H]4[C@H]3C(=C)C[C@@]21CC [SJ000565174-1, DESOGESTREL]	0.3348	2.249	3.09	3.523	4.001	1.152	2.427	2.771								
COc1ccc2cc1Oc1cc3c(cc1OC)CC[N+](C)(C)[C@H]3Cc1ccc(cc1)Oc1c(OC)c(OC)cc3c1[C@@H](C2)[N+](C)(C)CC3 [SJ000565179-1, METOCURINE IODIDE]	0.1471	-2.545	-0.842	-0.367	1.51	0.972	-2.411	-0.03863								
CCOC(=O)C(C)Oc1cccc2c(=O)n(CC(=O)Nc3ccc4c(c3)OCCO4)ccc12 (stereo not drawn) [SJ000565608-2, SID 7969543]	1.293	-1.631	3.909	-1.631	2.255	4.074	1.565	-0.5022								
COc1ccc(-c2ccc3c(N4CCOC[C@@H]4C)nc(N4CCOC[C@@H]4C)nc3n2)cc1CO [SJ000571306-4, 1009298-09-2 | AZD8055 | | AZD8055]	34.83	58.27	20	41.99	44.46	63.41	103.1	53.04								
Cc1ccccc1-n1c(Cn2cnc3c(N)ncnc32)nc2cccc(C)c2c1=O [SJ000571308-2, IC-87114 | PIK 293]	2.064	-0.8579	1.318	-1.447	3.81	10.49	-7.948	0.4255								
Fc1cccc(COc2ccc(Nc3ncnc4sc(-c5ccco5)cc34)cc2Cl)c1 [SJ000573002-1, U22476/39/2]	-2.902	0.3499	0.9644	-3.433	-1.439	-4.95	-2.703	0.5844								
COc1cc2ncn(-c3cc(O[C@@H](C)c4ccccc4Cl)c(C(N)=O)s3)c2cc1OC [SJ000573003-1, U20723/53/1 | U20723/56/1]	83.64	40.55	43.99	89.94	67.89	52.73	79.08	74.14								
